Assay results reported in PMC12775434, “Ultra-large virtual screening unveils potent agonists of the neuromodulatory orphan receptor GPR139” (Nature Communications, 2025).
“And” between values parts separate entries of the source, which are not always exact repeats. Equal values may be shown once. Read-outs that look alike come from different tables or passages of the source.

Key:
Format in all cases: cell-based
GPR139 [1] = target: T1, GPR139 (Homo sapiens, UniProt Q6DWJ6); assay: Ca2+ mobilization assay, agonist mode, stable GPR139-CHOk1 cell line; details: for Emax: normalized to Lundbeck Cmp 1a, read-out: Emax (%) Ca2+
T1 sequence (Q6DWJ6 1-353): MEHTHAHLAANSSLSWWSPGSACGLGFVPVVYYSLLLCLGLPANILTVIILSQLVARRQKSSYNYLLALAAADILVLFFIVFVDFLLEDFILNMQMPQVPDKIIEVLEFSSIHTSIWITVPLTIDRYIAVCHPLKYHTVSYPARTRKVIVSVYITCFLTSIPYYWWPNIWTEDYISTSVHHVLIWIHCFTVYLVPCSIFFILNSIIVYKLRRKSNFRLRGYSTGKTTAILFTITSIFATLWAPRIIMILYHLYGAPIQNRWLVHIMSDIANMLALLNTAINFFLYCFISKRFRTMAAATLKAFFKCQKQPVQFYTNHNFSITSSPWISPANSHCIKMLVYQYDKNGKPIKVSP
In short: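 Agonist activity of compounds is assessed in stably transfected CHO-K1 cells using the calcium dye Fluo-4 at 37 °C in HEPES-buffered HBSS (pH 7.4). Efficacy is expressed relative to the reference agonist Lundbeck Cmp 1a, set as 100%.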

GPR139 [2] = target: T1, GPR139; assay: Ca2+ mobilization assay, antagonist mode (EC80 800 nM Lundbeck Cmp 1a after 20 min preincubation), GPR139-CHOk1
In short: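 Fluo-4-loaded GPR139-CHOk1 cells in HEPES-buffered HBSS (pH 7.4, 2.5 mM probenecid) given test compounds at 10 µM, then after 20 min challenged with 800 nM Lundbeck Cmp 1a (EC80). Calcium fluorescence read at 37 °C, 485/525 nm.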

[3] = target: T2, human muscarinic acetylcholine M1 receptor (M1R) (Homo sapiens, UniProt P11229); assay: Ca2+ mobilization counter-screen in M1R-CHOk1 cells
T2 sequence (P11229 1-460): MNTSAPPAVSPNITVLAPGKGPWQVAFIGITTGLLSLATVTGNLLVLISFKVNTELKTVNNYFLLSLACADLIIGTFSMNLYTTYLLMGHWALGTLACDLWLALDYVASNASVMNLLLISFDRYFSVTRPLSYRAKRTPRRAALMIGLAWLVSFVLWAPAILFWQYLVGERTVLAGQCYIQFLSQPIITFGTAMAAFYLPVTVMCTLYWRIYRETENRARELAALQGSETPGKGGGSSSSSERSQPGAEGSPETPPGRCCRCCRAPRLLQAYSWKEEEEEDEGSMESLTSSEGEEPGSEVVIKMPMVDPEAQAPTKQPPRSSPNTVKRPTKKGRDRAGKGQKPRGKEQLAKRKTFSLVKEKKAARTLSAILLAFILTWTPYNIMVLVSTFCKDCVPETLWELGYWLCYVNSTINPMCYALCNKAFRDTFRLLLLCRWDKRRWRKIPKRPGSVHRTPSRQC
In short: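 M1R-CHOk1 cells seeded 20–24 h, loaded with 2 µM Fluo-4 AM (2.5 mM probenecid, 0.01% Pluronic F-68) for 1 h at 37 °C in HBSS/20 mM HEPES pH 7.4. Compounds added after baseline (≤0.3% DMSO); calcium fluorescence read at 37 °C, ex 485/em 525 nm.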

[4] = Agonist mode, individual replicates (Supplementary Figure 4)
[5] = GPR139-CHOk1, read-out: EC50, Ca2+ mobilization
[6] = Supplementary Table 2, mean ± SEM
[7] = log [Compound] M = -4.5, individual replicate columns
[8] = log [Compound] M = -5.0, individual replicate columns
[9] = log [Compound] M = -5.5, individual replicate columns
[10] = log [Compound] M = -6.0, individual replicate columns
[11] = log [Compound] M = -6.5, individual replicate columns
[12] = log [Compound] M = -7.0, individual replicate columns
[13] = log [Compound] M = -7.5, individual replicate columns
[14] = log [Compound] M = -8.0, individual replicate columns
[15] = log [Compound] M = -8.5, individual replicate columns
[16] = log [Compound] M = -9.0, individual replicate columns
[17] = individual replicates (Supplementary Figure 4)
[18] = individual replicates (Supplementary Figure 5)
[19] = Supplementary Table 2, mean ± SEM, read-out: pEC50 Ca2+ (converted)

SMILES | Ca2+ signal (% of Cmp 1a) (GPR139 [1]; [4]) | EC50 (GPR139 [1]; [5]) | Emax (GPR139 [1]; [6]) | Ca2+ signal (% of Cmp 1a) (GPR139 [1]; [7]) | Ca2+ signal (% of Cmp 1a) (GPR139 [1]; [8]) | Ca2+ signal (% of Cmp 1a) (GPR139 [1]; [9]) | Ca2+ signal (% of Cmp 1a) (GPR139 [1]; [10]) | Ca2+ signal (% of Cmp 1a) (GPR139 [1]; [11]) | Ca2+ signal (% of Cmp 1a) (GPR139 [1]; [12]) | Ca2+ signal (% of Cmp 1a) (GPR139 [1]; [13]) | Ca2+ signal (% of Cmp 1a) (GPR139 [1]; [14]) | Ca2+ signal (% of Cmp 1a) (GPR139 [1]; [15]) | Ca2+ signal (% of Cmp 1a) (GPR139 [1]; [16]) | Ca2+ signal (% of Cmp 1a) (GPR139 [2]; [17]) | Ca2+ signal (% of Carbachol) [3, 18] | EC50 (GPR139 [1]; [19]) | also measured
CC(NC(=O)Cc1noc(-c2cccs2)n1)c1ccccc1 (stereo not shown) [Compound 1.8, CC(C1=CC=CC=C1)NC(CC2=NOC(C3=CC=CS3)=N2)=O] | 85 % of Cmp 1a and 73 % of Cmp 1a and 70 % of Cmp 1a | 200 nM | 107 ± 2% | 109 % of Cmp 1a and 116 % of Cmp 1a and 101 % of Cmp 1a | 111 % of Cmp 1a and 105 % of Cmp 1a and 96 % of Cmp 1a | 93 % of Cmp 1a and 94 % of Cmp 1a and 84 % of Cmp 1a | 85 % of Cmp 1a and 82 % of Cmp 1a and 75 % of Cmp 1a | 69 % of Cmp 1a and 70 % of Cmp 1a and 47 % of Cmp 1a | 38 % of Cmp 1a and 47 % of Cmp 1a and 20 % of Cmp 1a | 0.333 % of Cmp 1a and 13 % of Cmp 1a and 7 % of Cmp 1a | -16 % of Cmp 1a and -13 % of Cmp 1a and 1.67 % of Cmp 1a | -16 % of Cmp 1a and 4.67 % of Cmp 1a and -5.33 % of Cmp 1a | -11 % of Cmp 1a and -5.67 % of Cmp 1a and -13 % of Cmp 1a | -5.67 % of Cmp 1a and 1.33 % of Cmp 1a and -13 % of Cmp 1a | 5 % of Carbachol and -12 % of Carbachol and 8 % of Carbachol | – | –
COc1ccc(-c2nc(CC(=O)NC(C)c3ccccc3)no2)cc1 (stereo not shown) [Compound 1.18, COC1=CC=C(C2=NC(CC(NC(C3=CC=CC=C3)C)=O)=NO2)C=C1] | 43 % of Cmp 1a and 66 % of Cmp 1a and 77 % of Cmp 1a | 1000 nM | 72 ± 5% | 87 % of Cmp 1a and 72 % of Cmp 1a and 75 % of Cmp 1a | 75 % of Cmp 1a and 67 % of Cmp 1a and 70 % of Cmp 1a | 73 % of Cmp 1a and 53 % of Cmp 1a and 59 % of Cmp 1a | 61 % of Cmp 1a and 23 % of Cmp 1a and 42 % of Cmp 1a | 30 % of Cmp 1a and 3.38 % of Cmp 1a and 24 % of Cmp 1a | 7 % of Cmp 1a and 9 % of Cmp 1a and 8 % of Cmp 1a | 6 % of Cmp 1a and 11 % of Cmp 1a and 5.71 % of Cmp 1a | -0.63 % of Cmp 1a and 3 % of Cmp 1a and 8 % of Cmp 1a | 3.39 % of Cmp 1a and 6.59 % of Cmp 1a and 3.49 % of Cmp 1a | 0.103 % of Cmp 1a and 9 % of Cmp 1a and 2.64 % of Cmp 1a | 26 % of Cmp 1a and 19 % of Cmp 1a and 8 % of Cmp 1a | 2 % of Carbachol and 2.18 % of Carbachol and -0.905 % of Carbachol | – | –
Cc1ncc(-c2nc(CC(=O)NC(C)c3ccccc3)no2)s1 (stereo not shown) [Compound 1.34, CC(C1=CC=CC=C1)NC(CC2=NOC(C3=CN=C(S3)C)=N2)=O] | 81 % of Cmp 1a and 51 % of Cmp 1a | – | 90 ± 6% | 108 % of Cmp 1a and 98 % of Cmp 1a and 84 % of Cmp 1a and 88 % of Cmp 1a | 66 % of Cmp 1a and 94 % of Cmp 1a and 68 % of Cmp 1a and 51 % of Cmp 1a | 43 % of Cmp 1a and 86 % of Cmp 1a and 38 % of Cmp 1a and 21 % of Cmp 1a | 8.56 % of Cmp 1a and 40 % of Cmp 1a and 9.49 % of Cmp 1a and -0.9 % of Cmp 1a | -2.32 % of Cmp 1a and 12 % of Cmp 1a and 4.69 % of Cmp 1a and 1.79 % of Cmp 1a | 3 % of Cmp 1a (2×) and -4 % of Cmp 1a and 10 % of Cmp 1a | 8 % of Cmp 1a and -0.386 % of Cmp 1a and 18 % of Cmp 1a and 3.4 % of Cmp 1a | 15 % of Cmp 1a and -0.802 % of Cmp 1a and 16 % of Cmp 1a and 14 % of Cmp 1a | 6.66 % of Cmp 1a and 2 % of Cmp 1a and 14 % of Cmp 1a and 12 % of Cmp 1a | 1.77 % of Cmp 1a and 8 % of Cmp 1a and 11 % of Cmp 1a and 6 % of Cmp 1a | 33 % of Cmp 1a and 16 % of Cmp 1a and 43 % of Cmp 1a | 0.0525 % of Carbachol and -0.37 % of Carbachol and -1 % of Carbachol | 3980 nM | fold decrease in potency relative to parent compound 1 (GPR139 [1]; Ca2+ mobilization EC50): 3- to 25 fold
CN1CC(=O)N(c2cccc(NC(=O)C3Cc4ccccc43)c2)C1=O (stereo not shown) [Compound 9, CN1CC(=O)N(C1=O)C=2C=CC=C(NC(=O)C3CC=4C=CC=CC34)C2] | – | – | – | – | – | – | – | – | – | – | – | – | – | – | – | – | Ca2+ signal (% of Cmp 1a) (GPR139 [1]; 0.1 µM, individual replicates (Supplementary Figure 3)): -6.9 % of Cmp 1a and -8.5 % of Cmp 1a; Ca2+ signal (% of Cmp 1a) (GPR139 [1]; 1 µM, individual replicates (Supplementary Figure 3)): -0.2 % of Cmp 1a and -5.2 % of Cmp 1a; Ca2+ signal (% of Cmp 1a) (GPR139 [1]; 10 µM, individual replicates (Supplementary Figure 3)): 18.7 % of Cmp 1a and 14.1 % of Cmp 1a; Ca2+ signal (% of Cmp 1a) (GPR139 [1]; Agonist mode, individual replicates (Supplementary Figure 1)): 25 % of Cmp 1a and 10 % of Cmp 1a and 48 % of Cmp 1a; Ca2+ signal (% of Cmp 1a) (GPR139 [2]; individual replicates (Supplementary Figure 1)): 73.6349 % of Cmp 1a and 73.421 % of Cmp 1a and 97.2374 % of Cmp 1a; Ca2+ signal (% of Carbachol) ([3]; individual replicates (Supplementary Figure 2)): -9 % of Carbachol and -19 % of Carbachol
Cc1ccc(-c2nc(CC(=O)NC(C)c3ccccc3)no2)o1 (stereo not shown) [Compound 1.6, CC(C1=CC=CC=C1)NC(CC2=NOC(C3=CC=C(O3)C)=N2)=O] | 102 % of Cmp 1a and 114 % of Cmp 1a and 83 % of Cmp 1a | – | 112 ± 10% | 98 % of Cmp 1a and 103 % of Cmp 1a and 120 % of Cmp 1a | 89 % of Cmp 1a and 114 % of Cmp 1a and 105 % of Cmp 1a | 87 % of Cmp 1a and 107 % of Cmp 1a and 97 % of Cmp 1a | 70 % of Cmp 1a and 96 % of Cmp 1a and 81 % of Cmp 1a | 48 % of Cmp 1a and 70 % of Cmp 1a and 59 % of Cmp 1a | 17 % of Cmp 1a and 46 % of Cmp 1a and 43 % of Cmp 1a | -11 % of Cmp 1a and 21 % of Cmp 1a and 0 % of Cmp 1a | -16 % of Cmp 1a and -2 % of Cmp 1a and 1 % of Cmp 1a | -14 % of Cmp 1a and -8 % of Cmp 1a and -4 % of Cmp 1a | -22 % of Cmp 1a and -11 % of Cmp 1a and -20 % of Cmp 1a | -5.33 % of Cmp 1a and -3.67 % of Cmp 1a and -16 % of Cmp 1a | -2 % of Carbachol and -10 % of Carbachol and 10 % of Carbachol | 158 nM | –
